Results: US20050053912A1, “Methods for inducing reversible stasis” (priority 2001, published 2005)

Tests used:
zebrafish embryos [1] = test: Viability of zebrafish embryos treated with compound, in anoxia versus normoxia; assay type: in vivo; details: approx. 8 hpf embryos
Text: Oxygen Deprivation Environments. For all studies an anaerobic bio-bag type A environmental chamber was used according to manufacturer's instructions (Becton Dickinson). This method contains a resazurin indicator that allows one to determine when the anoxic environment is established. A second method was used to verify suspended animation results. This method involved use of a chamber perfused with 100% N2 gas (Airgas Inc.) and monitored for oxygen using a FYRITE O2 Gas Analyzer (Bacharach, Pittsburgh, Pa.) and Resazurin Indicator (Becton Dickinson). By using these anoxia-producing methods, it took approximately two hours for the oxygen concentration to reach zero. Development of embryos could continue for another 1-2.5 hours, depending on the amount of water present.
This example describes the identification of a compound that causes fish embryos subjected to an anoxic/hypoxic environment to die. In this example, fish were maintained at 28° C. in fish water or embryo media (Westerfield, 1995). Briefly, zebrafish embryos at approximately 8 hpf were pre-treated with Pronase to remove the chorion. Approximately 10 pre-treated fish were placed in each 30 mm petrie dishes in either fish water or embryo media. […] After 24 hours in anoxia, the embryos were returned to room air and viability was assessed visually. […]

zebrafish embryos [2] = test: Induction of and exit from stasis in zebrafish embryos under normoxic conditions; assay type: in vivo
Procedure: This example describes the identification of a compound that causes fish embryos to enter stasis. In this example, fish were maintained at 28° C. in fish water or embryo media. Briefly, zebrafish embryos at approximately 8 hpf were pre-treated with Pronase to remove the chorion. Approximately 10 pre-treated fish were placed in 30 mm petrie dishes in either fish water or embryo media. Dilutions of Rotenone (Sigma, St. Louis, Mo.) were added to the pre-treated fish in concentrations from approximately 10 μg/ml reduced in half-logs concentrations down to approximately 10 ng/ml. The embryos were exposed to the compound for approximately 12 hours at 28° C. under normoxic conditions. As a control, pre-treated embryos were incubated in normoxic conditions at 28° C. for the same period of time. After incubation with the compound, the embryos were assessed visually for entry into stasis. […] The Rotenone-treated embryos were removed into fresh medium and incubated at 28° C. under normoxic conditions for 24 hours. The embryos were then assessed visually for the ability to exit stasis.

Molecule	viability assessed visually after anoxia (zebrafish embryos [1]; 500 nM, approx. 2 h pre-exposure, 24 hours anoxia at 28° C., then returned to room air)	viability, treated embryos not placed in anoxia (zebrafish embryos [1]; normoxic conditions at 28° C. for 24 hours (control))	entry into stasis assessed visually (zebrafish embryos [2]; 0.1 μg/ml, approx. 8 hpf embryos, approx. 12 hours at 28° C. under normoxic conditions)	ability to exit stasis assessed visually (zebrafish embryos [2]; embryos removed into fresh medium, 28° C., normoxic conditions for 24 hours)
1H, 5H, 11H, 15H-Xantheno[2,3,4-ij:5,6,7-i′j′]diquinolizin-18-ium, 9-[4-(chloromethyl)phenyl]-2,3,6,7,12,13,16,17-octahydro-, chloride [M[…]]	not viable	viable		
C=C(C)[C@H]1Cc2c(ccc3c2O[C@@H]2COc4cc(OC)c(OC)cc4[C@@H]2C3=O)O1 [Rotenone]			enter stasis	reversible stasis inducer
